# Assay results as given in US20240041877A1, “DOSAGE REGIME AND METHOD FOR TREATING PULMONARY ARTERIAL HYPERTENSION” (Altavant Sciences GmbH, priority 2019, published 2024).
# Experiments:
# [1] = Cardiac conduction (QTcF) in healthy adult subjects; format: in vivo, human
# [2] = test system: serum 5-HT; test: Part 2 (MAD) biomarker: serum 5-HT change from Day 1 predose; format: in vivo, human
# From the text: (§1) Biomarkers were to be evaluated in Part 2 by measuring concentrations of serotonin (5-hydroxytryptamine [5-HT]) in serum and 5-hydroxyindoleacetic acid (5-HIAA) in plasma and urine. As well, the relationship of biomarkers to PK parameters was to be evaluated.
# (§2) The biomarker analysis was to be based on the Biomarker Population (all subjects with evaluable biomarker measurements at baseline [Day 1 predose] and at least one after dosing [Day 7 or Day 14]).
# (§3) Biomarker data were to be collected only in Part 2. The following biomarkers were to be analyzed: • Serum 5-HT • Plasma 5-HIAA • Urine 5-HIAA/24 hours (as measured, adjusted, estimated, and per gram creatinine)
# (§4) Summary statistics (mean, standard deviation [SD], median, minimum [Min], and maximum [Max]) were to be tabulated for each biomarker, by Cohort, with absolute and relative (%) changes from Day 1 predose.
# (§5) The values were to be tabulated with P values testing whether the difference of changes was equal to 0.
# (§6) The biomarker portion of the study was conducted in Part 2 MAD using the Biomarker Population. The biomarkers evaluated were serum 5-HT and plasma 5-HIAA, as well as urine 5-HIAA/24 hours (as measured, adjusted, estimated, and per gram creatinine). Urinary 5-HIAA was determined by a validated (21 C.F.R. 58, GLP-compliant) method using liquid chromatographic separation and tandem mass spectrometry detection.
# [3] = clinical; conditions: human
# From the text: Food effect was to be evaluated in Part 1, Period 2.
# Pharmacokinetic data were to be summarized descriptively.
# [4] = test system: urine 5-HIAA (a PD marker of 5-HT synthesis); test: Part 2 (MAD) biomarker: urine 5-HIAA/24 hours (measured, adjusted, estimated, per gram creatinine); format: in vivo, human; conditions: no creatinine adjustment
# From the text: as §1, §2, §3, §4, §5, §6
# Urine 5 HIAA/24 hour was analyzed in 4 different manners: as measured in the 24-hour collection and (in order to correct for any collection errors) adjusted for creatinine excretion, estimated by the expected creatinine excretion for the subject (as defined in and expressed per gram creatinine. Results were similar for each of the 4 manners and are presented in this report for measured urine. Tables and figures for adjusted, estimated, and per-gram creatinine results are presented in Section 14.
# [5] = all doses pooled, predose Day 7
# [6] = all doses pooled, predose Day 14
compound,measurement,setting,value
"CCOC(=O)[C@@H]1CC2(CCN(c3cc(O[C@H](c4ccc(Cl)cc4-c4ccccc4)C(F)(F)F)nc(N)n3)CC2)CN1 [KAR5585, (S)-ethyl 8-(2-amino-6-((R)-1-(5-chloro-[1,1′-biphenyl]-2-yl)-2,2,2-trifluoroethoxy)pyrimidin-4-yl)-2,8-diazaspiro[4.5]decane-3-carboxylate]",tendency to increase QTcF in a dose-dependent manner,[1],Neither the prodrug (KAR5585) nor the active drug (KAR5417) showed any tendency to increase QTcF in a dose-dependent manner
same,Serum 5-HT: mean difference of % change from Day 1 between KAR5585 and placebo,"[2]; 100 mg fasting, predose Day 7",−10.97%
same,Serum 5-HT: mean difference of absolute change from Day 1 between KAR5585 and placebo,"[2]; 100 mg fasting, predose Day 7",-12.97 ng/mL
same,Serum 5-HT: mean difference of % change from Day 1 between KAR5585 and placebo,"[2]; 100 mg fasting, predose Day 14",−15.92%
same,Serum 5-HT: mean difference of absolute change from Day 1 between KAR5585 and placebo,"[2]; 100 mg fasting, predose Day 14",-17.39 ng/mL
same,Serum 5-HT: mean difference of % change from Day 1 between KAR5585 and placebo,"[2]; 100 mg fed, predose Day 7",−11.02%
same,Serum 5-HT: mean difference of absolute change from Day 1 between KAR5585 and placebo,"[2]; 100 mg fed, predose Day 7",-15.75 ng/mL
same,Serum 5-HT: mean difference of % change from Day 1 between KAR5585 and placebo,"[2]; 100 mg fed, predose Day 14",−0.47%
same,Serum 5-HT: mean difference of absolute change from Day 1 between KAR5585 and placebo,"[2]; 100 mg fed, predose Day 14",5.08 ng/mL
same,Serum 5-HT: mean difference of % change from Day 1 between KAR5585 and placebo,"[2]; 200 mg fed, predose Day 7",−21.64%
same,Serum 5-HT: mean difference of absolute change from Day 1 between KAR5585 and placebo,"[2]; 200 mg fed, predose Day 7",-28.53 ng/mL
same,Serum 5-HT: mean difference of % change from Day 1 between KAR5585 and placebo,"[2]; 200 mg fed, predose Day 14",−11.43%
same,Serum 5-HT: mean difference of absolute change from Day 1 between KAR5585 and placebo,"[2]; 200 mg fed, predose Day 14",-5.79 ng/mL
same,Serum 5-HT: mean difference of % change from Day 1 between KAR5585 and placebo,"[2]; 400 mg fed, predose Day 7",2.09%
same,Serum 5-HT: mean difference of absolute change from Day 1 between KAR5585 and placebo,"[2]; 400 mg fed, predose Day 7",16.47 ng/mL
same,Serum 5-HT: mean difference of % change from Day 1 between KAR5585 and placebo,"[2]; 400 mg fed, predose Day 14",−50.02%
same,Serum 5-HT: mean difference of absolute change from Day 1 between KAR5585 and placebo,"[2]; 400 mg fed, predose Day 14",-84.50 ng/mL
same,"mean difference vs placebo of percent changes from Day 1 in serum 5-HT concentration, significance",[2]; Day 7,statistically significant compared to placebo on Day 7 in favor of the 200 mg fed dose group
same,Serum 5-HT: mean difference of % change from Day 1 between KAR5585 and placebo,[2]; [5],−10.39%
same,Serum 5-HT: mean difference of absolute change from Day 1 between KAR5585 and placebo,[2]; [5],-10.19 ng/mL
same,Serum 5-HT: mean difference of % change from Day 1 between KAR5585 and placebo,[2]; [6],−20.26%
same,Serum 5-HT: mean difference of absolute change from Day 1 between KAR5585 and placebo,[2]; [6],-27.14 ng/mL
same,half-life,"[3]; in vivo, 400 mg",188 min
same,Cmax,"[3]; in vivo, 400 mg/dose",110 ng/mL
same,Cmax at 1 day,"[3]; plasma, oral, 100 mg",16.7 ng/mL
same,Cmax at 14 day,"[3]; plasma, oral, 100 mg",21.3 ng/mL
same,AUC(0-inf),"[3]; plasma, oral, 100 mg/dose",54.1 ng·h/mL
same,AUC(0-t),"[3]; plasma, oral, 100 mg/dose",50.8 ng·h/mL
same,Cmax,"[3]; plasma, oral, 100 mg/dose",15.8 ng/mL
same,Tmax,"[3]; plasma, oral, 100 mg/dose",1 h
same,Vd/F,"[3]; plasma, oral, 100 mg/dose",4620 L
same,half-life,"[3]; plasma, oral, 100 mg/dose",104 min
same,AUC(0-inf),"[3]; plasma, oral, 400 mg",305 ng·h/mL
same,Tmax,"[3]; plasma, oral, 400 mg",2 h
same,AUC(0-inf),"[3]; plasma, oral, 400 mg/dose",482 ng·h/mL
same,Cmax,"[3]; plasma, oral, 400 mg/dose",89 ng/mL
same,concentration at 12 h,"[3]; plasma, oral, 400 mg/dose",11.4 ng/mL
same,half-life,"[3]; plasma, oral, 400 mg/dose",387 min
same,Measured urine 5-HIAA: mean difference of % change from Day 1 between KAR5585 and placebo,"[4]; 100 mg fasting, Day 7",−31.97%
same,Measured urine 5-HIAA: mean difference of absolute change from Day 1 between KAR5585 and placebo,"[4]; 100 mg fasting, Day 7",−0.92 mg/24 hours
same,Measured urine 5-HIAA: mean difference of % change from Day 1 between KAR5585 and placebo,"[4]; 100 mg fasting, Day 14",−17.65%
same,Measured urine 5-HIAA: mean difference of absolute change from Day 1 between KAR5585 and placebo,"[4]; 100 mg fasting, Day 14",−0.91 mg/24 hours
same,Measured urine 5-HIAA: mean difference of % change from Day 1 between KAR5585 and placebo,"[4]; 100 mg fed, Day 7",−50.34%
same,Measured urine 5-HIAA: mean difference of absolute change from Day 1 between KAR5585 and placebo,"[4]; 100 mg fed, Day 7",−2.09 mg/24 hours
same,Measured urine 5-HIAA: mean difference of % change from Day 1 between KAR5585 and placebo,"[4]; 100 mg fed, Day 14",−36.03%
same,Measured urine 5-HIAA: mean difference of absolute change from Day 1 between KAR5585 and placebo,"[4]; 100 mg fed, Day 14",−1.65 mg/24 hours
same,Measured urine 5-HIAA: mean difference of % change from Day 1 between KAR5585 and placebo,"[4]; 200 mg fed, Day 7",−26.95%
